These are literature values, as cited in patent US10590381B2, “Composition for collecting and preserving placental stem cells and methods of using the composition” (Celularity, Inc., priority 2005, dated 2020).

SMILES strings stand for the structures.

The conditions of series [1]: for hygroscopicity: solid polymorphic form; for conversion at higher relative humidities: stressed at higher relative humidities.
For series [2] the following is noted: Form E: about 125° C. for about five minutes; Form B: 175° C. for about five minutes.
The conditions of series [3]: Form A: among anhydrous polymorphs; Form E: in aqueous solvent systems.

On to `Nc1cccc2c1CN(C1CCC(=O)NC1=O)C2=O` (centres unmarked) [Form D, 3-(4-amino-1-oxo-1,3 dihydro-isoindol-2-yl)-piperidene-2,6-dione], for which, in series [1], the hygroscopicity entry was “either weakly or not hygroscopic” and the “conversion at higher relative humidities” value is “will typically convert to Form B”. On to `Nc1cccc2c1CN(C1CCC(=O)NC1=O)C2=O` (centres unmarked) [Form B, 3-(4-amino-1-oxo-1,3 dihydro-isoindol-2-yl)-piperidene-2,6-dione], for which the conversion upon heating entry in series [2] is recorded as “can convert to Form F”.

As for `Nc1cccc2c1CN(C1CCC(=O)NC1=O)C2=O` (centres unmarked) [Form E, 3-(4-amino-1-oxo-1,3 dihydro-isoindol-2-yl)-piperidene-2,6-dione], the conversion upon heating result in series [2] was “can convert to Form B”. As for `Nc1cccc2c1CN(C1CCC(=O)NC1=O)C2=O` (centres unmarked) [Form A, 3-(4-amino-1-oxo-1,3 dihydro-isoindol-2-yl)-piperidene-2,6-dione], the hygroscopicity entry in series [1] is on record as “weakly or not hygroscopic”. Further, the “relative stability among polymorphs” value in series [3] is “most thermodynamically stable anhydrous polymorph”.

Turning to `Nc1cccc2c1CN(C1CCC(=O)NC1=O)C2=O` (centres unmarked) [Form C, 3-(4-amino-1-oxo-1,3 dihydro-isoindol-2-yl)-piperidene-2,6-dione], in series [1], the hygroscopicity entry is given as “not hygroscopic below about 85% RH” and the “conversion at higher relative humidities” value was “can convert to Form B at higher relative humidities”.
